Measured values: patent US4425356A, “Lankacidin derivatives used in swine husbandry” (Takeda Chemical Industries, Ltd., priority 1980, dated 1984)
Converted amounts (≈) assume the structure as drawn. Where two headings read alike, the source gives them in different places.

Columns and labels:
[1] = test system: Treponema hyodysenteriae 78/A strain; assay: efficacy against swine dysentery under experimental infection conditions in pigs (drug in feed), Test Examples 5-7; assay type: in vivo, Landrace pigs
Experimental: Lankacidin C was tested for efficacy against swine dysentery under experimental infection conditions. Thus, twelve 6-week-old Landrace pigs (4 per group) were used. The test drug was admixed to a concentration of 100 ppm with the domestically formulated starter feed for young pigs without antibiotics. The animals were provided with the ration ad libitum. Infection of the pigs was effected by direct intragastrical administration to the SPF pigs of an inoculum prepared by preliminary anaerobic cultivation of the Treponema hyodysenteriae 78/A strain on a 5% horse blood added agar plate, mashing together with the culture medium and admixing with 5% mucin added phosphate buffer. Colonic contents and mucosa were collected from pigs which developed typical signs of swine dysentery, and diluted two-fold with 5% mucin added phosphate buffer. The dilution was used as the final inoculum, and 100 ml of the dilution was directly injected into the stomach of test pigs at the age of 7 weeks (fasted for 24 hours before infection). The pigs were fed for 21 days following infection.
The data are each the mean value per head for the 21day period from
infection to autopsy. Different alphabetic letters on the same line
indicate that there is a significant difference between the data to which
they are attached (P <0.05).
Lankacidin C was tested at concentrations in feed of 100 ppm and lower by the same method as in Test Example 5, with carbadox, a commonly used anti-swine-dysentery agent, for comparison.
The anti-swine-dysentery effects of 10 ppm each of lankacidin A and lankacidin C 14-propionate were examined by the procedure of Test Example 6.

[2] = test system: Treponema hyodysenteriae 78/A strain; assay: therapeutic administration in pigs showing clinical signs of swine dysentery, Test Examples 8-9; assay type: in vivo; details: for Condition of feces: Table 9, individual pig
Experimental: This test was conducted under the conditions of so-called therapeutic administration. […] The method of infection was the same as in Test Example 5. […] Simultaneously with showing of the signs, the pigs were provided with a feed containing 50 ppm of lankacidin C. […] After 2 days, the viable count for the pathogen in feces was below the detection limit (10^2 CFU/g).
The condition of feces was rated at one of the following four classes:
.circle. normal; loose; diarrheal; .circleincircle. mucous and bloody
count is below the detection limit (10^2 CFU/g).
The symbol * indicates those days on which the feed containing 50 ppm of
lankacidin C was given.
Lankacidins were tested for therapeutic effects in swine dysentery under therapeutic conditions in the same manner as in Test Example 8. The effects were judged based on the condition of feces.
The condition of feces was rated at one of the following four classes;
The symbol * indicates the days on which the feed containing 50 ppm of th

Treponema hyodysenteriae [3] = assay: efficacy in experimental infection in mice with swine dysentery, Test Example 4; assay type: in vivo; details: 5 mg/kg/day oral, day 1 to day 4; seven days after infection
Experimental: Lankacidin A, lankacidin C, lankacidin C 8-acetate, lankacidin C 14-propionate, lankacidinol A and lankacidinol were tested for efficacy against swine dysentery in experimental infection in mice with swine dysentery.
The similar experimental infection model of swine dysentery in mice as that described, for example, by Joens et al. in Infection and Immunity, 25, 757-760 (1979), American Journal of Veterinary Research, 41, 1225-1226 (1980) and Veterinary Record, 107, 527-529 (1980) was used. Thus, a field isolate of Treponema hyodysenteriae anaerobically cultivated on the 5% defibrinated horse blood added Trypticase soy agar (BBL) plate was mashed together with the culture medium and diluted two-fold with Trypticase soy broth (BBL). Mice were inoculated intragastrically with this infecting dilution. Each test agent was suspended in 5% gum arabic solution and forcibly administered orally from day 1 to day 4 following infection. Seven days after infection, the cecum was examined for lesions, and the cecum was mashed together with the contents and subjected to Treponema hyodysenteriae counting. Excellent efficacy was produced in each of the drug-administered groups.

Treponema hyodysenteriae [4] = assay: in vitro antibacterial activity (MIC, agar dilution method), Test Examples 1-3; assay type: cell-based; details: 37° C., 2 days, anaerobic; for MIC: Brachyspira hyodysenteriae, 48 h, read-out: Minimum Inhibitory Concentration
Experimental: Several agents were tested for in vitro antibacterial activity against Treponema hyodysenteriae, the pathogenic bacteria causing swine dysentery, by the method of testing drug sensitivity of Treponema hyodysenteriae (Kashiwazaki et al. Abstracts of Papers presented at the 82nd Meeting of the Japanese Society of Veterinary Science, page 101, 1976).
(1) Strains: These strains belong to Treponema hyodysenteriae isolated
from the bloody mucous faeces of dysenteric pigs in Japan.
(2) Antimicrobial activity assay: Agar dilution method
(3) Inoculum size: A loopful of bacterial suspension (10^6 CFU/ml)
(4) Cultural conditions: GasPak anaerobic system (BBL), 37° C., 2
Typical agents among compound (I) were tested for in vitro antibacterial activity by the same method as in Test Example 1.
The experimental conditions are the same as in Test Example 1 (Table 1).
Agents of compound (I) were tested for in vitro antibacterial activity by the same method as in Test Example 1.

[5] = acute toxicity tests with mice; details: mouse, in vivo
Description: The toxicity of compound (I) in animals is very low.

[6] = 10 ppm in feed, 21-day test period
[7] = 10 ppm in feed, 21 day period, mean per head

CC(=O)OC1C=CC(C)=CCC(O)C=CC(C)=CC(NC(=O)C(C)=O)C2(C)C(=O)OC(C1)C(C)C2=O (centres unmarked) [Lankacidin A, lankacidin A]
Number of pigs from which the pathogen was detected, in colonic mucosa ([1]; 10 ppm in feed): 0
Number of pigs from which the pathogen was detected, in feces ([1]; 10 ppm in feed): 0
Number of pigs showing colonic lesions ([1]; 10 ppm in feed): 0
Number of days on which diarrhea was observed [1, 6]: 0 days
Number of days on which mucous bloody stool was observed [1, 6]: 0 days
Number of pigs showing signs of infection/number of pigs used [1, 6]: 0/4
Body weight gain [1, 7]: 567 grams/day
Feed conversion [1, 7]: 1.76
Feed intake [1, 7]: 21.0 kg
Body weight at the time of completion of test ([1]; 10 ppm in feed, mean per head): 22.9 kg
effect against swine dysentery (in words) ([1]; pig, in vivo): distinctly effective against swine dysentery
therapeutic effect in swine dysentery (in words) ([2]; 50 ppm in feed): therapeutically effective
Condition of feces ([2]; 50 ppm in feed days 0-6, day 7): .circle.
Condition of feces ([2]; 50 ppm in feed days 0-6, day 8): .circle.
Condition of feces ([2]; 50 ppm in feed days 0-6, day 9): .circle.
Condition of feces ([2]; 50 ppm in feed days 0-6, day 10): .circle.
Condition of feces ([2]; 50 ppm in feed days 0-6, day 11): .circle.
Condition of feces ([2]; 50 ppm in feed days 0-6, day 12): .circle.
Condition of feces ([2]; 50 ppm in feed days 0-6, day 13): .circle.
Condition of feces ([2]; 50 ppm in feed days 0-6, day 14): .circle.
Condition of feces ([2]; 50 ppm in feed days 0-6, day 15): .circle.
Condition of feces ([2]; 50 ppm in feed days 0-6, day 16): .circle.
Condition of feces ([2]; 50 ppm in feed days 0-6, day 17): .circle.
Condition of feces ([2]; 50 ppm in feed days 0-6, day 18): .circle.
Condition of feces ([2]; 50 ppm in feed days 0-6, day 19): .circle.
Condition of feces ([2]; 50 ppm in feed days 0-6, day 20): .circle.
Condition of feces ([2]; 50 ppm in feed days 0-6, day 21): .circle.
Condition of feces ([2]; 50 ppm in feed, day 0 after manifestation of signs): .circleincircle.
Condition of feces ([2]; 50 ppm in feed, day 1): .circle.
Condition of feces ([2]; 50 ppm in feed, day 2): .circle.
Condition of feces ([2]; 50 ppm in feed, day 3): .circle.
Condition of feces ([2]; 50 ppm in feed, day 4): .circle.
Condition of feces ([2]; 50 ppm in feed, day 5): .circle.
Condition of feces ([2]; 50 ppm in feed, day 6): .circle.
Number of mice from which the pathogen was detected/number of mice tested (Treponema hyodysenteriae [3]): 1/5
Number of mice with cecal lesions/number of mice tested (Treponema hyodysenteriae [3]): 0/5
MIC (Treponema hyodysenteriae [4]; strain 78/A): 3.13 µg/mL (≈ 6.24 µM)
MIC (Treponema hyodysenteriae [4]; strain CD1 (CD-1)): 6.25 µg/mL (≈ 12.5 µM)
MIC (Treponema hyodysenteriae [4]; strain DJ70P1): 6.25 µg/mL (≈ 12.5 µM)
MIC (Treponema hyodysenteriae [4]; strain MK-2): 3.13 µg/mL (≈ 6.24 µM)
Minimum Inhibitory Concentration (Treponema hyodysenteriae [4]; strain DJ70P1): 3.13 µg/mL
Minimum Inhibitory Concentration (Treponema hyodysenteriae [4]; strain MK-2): 6.25 µg/mL
LD50 ([5]; ip, intraperitoneal, read-out: intraperitoneal LD50): 8000 to 10000 mg/kg
LD50 ([5]; oral, read-out: oral LD50): > 10000 mg/kg
